Where a chain is given by its changes, count along the chain named. pIC50: −log10 of the molar value. Several values for one entry are separate records, joined by “and”; a condition that tells them apart may be missing. Equal values may be shown once. Read-outs that look alike come from different tables or passages of the source.
Tests used:
[1] = target: T1, CYP1B1 F134L (Homo sapiens, UniProt Q16678, F134L); assay: In cell CYP1B1 activity assay, F134L variant; conditions: for logSI F134L: log of the ratio of IC50 values mutant vs WT (Fig. 3c)
T1 sequence (Q16678 1-543 F134L): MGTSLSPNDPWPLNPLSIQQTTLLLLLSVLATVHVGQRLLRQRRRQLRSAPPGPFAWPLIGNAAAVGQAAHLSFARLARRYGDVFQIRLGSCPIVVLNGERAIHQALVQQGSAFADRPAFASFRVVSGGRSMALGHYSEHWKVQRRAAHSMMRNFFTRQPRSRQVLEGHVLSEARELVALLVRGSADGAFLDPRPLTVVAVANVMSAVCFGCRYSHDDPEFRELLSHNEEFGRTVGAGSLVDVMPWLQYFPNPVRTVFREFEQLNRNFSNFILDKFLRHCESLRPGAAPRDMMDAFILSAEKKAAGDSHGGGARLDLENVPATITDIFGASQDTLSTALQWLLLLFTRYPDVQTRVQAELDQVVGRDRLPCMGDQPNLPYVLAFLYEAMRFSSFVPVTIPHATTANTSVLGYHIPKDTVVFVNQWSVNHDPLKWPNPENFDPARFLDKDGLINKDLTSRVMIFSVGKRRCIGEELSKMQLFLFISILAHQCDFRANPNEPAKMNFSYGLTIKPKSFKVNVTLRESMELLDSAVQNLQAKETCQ
Excerpt: (§1) Site directed mutagenesis was used to probe the importance of specific active-site contacts identified through the structural assessment (Fig. 3a, b) and simulations. In all cases, conservative mutations were made to maintain polar or hydrophobic character and approximate size. The aromatic residues that frame the inhibitor binding site, Phe143 and Phe231, were mutated to Leu to determine the importance of the π interactions. In addition, the Ser127 residue, located in the upper corner of the active site on the B-C loop, was chosen for mutation based on the simulations. This amino acid transiently contacts the inhibitors, but also forms a hydrogen bond with Asp326 of the I-helix, and thus may impact the position of this helix with regards to the B-C loop. […] Rather than directly mutating these residues in the I-helix, neighboring residues Gln332 and Asp333 were targeted, with the hope of interrupting amino acid interactions that position the helix within the active site.
(§2) The ratio of IC50 values for the WT vs. the mutant are shown in Fig. 3c and reflects the importance of the specific contact; the log of the value is used to aid in visualization.
(§3) Cell lines were seeded onto Geltrex coated 96-well plates at 40,000 cells/well, and grown overnight in DMEM media containing 1 μg/mL tetracycline. The media was then replaced with Opti-MEM supplemented with 2% FBS and 1 μg/mL tetracycline. Compounds were serially diluted in Opti-MEM supplemented with 2% FBS and 1 μg/mL tetracycline and an equal volume of compound added to the cells (n = 3). Following a 1 h incubation, resorufin ethyl ether (REE; for CYP1B1 and 1A1) or dibenzylfluorescein (DBF; for 19A1) was added to the cells for a total concentration of 5 μM for REE and 1 μM for DBF. […] Dose–response curves were generated in Prism and normalized using the no-compound control (set as 100% activity) and the no-cell control (set as 0% activity; this value in the raw data reflects the background fluorescence of the dye alone).

[2] = target: T2, CYP19A1 (Homo sapiens, UniProt P11511); assay: In cell activity assay for CYP19A1 (dibenzylfluorescein conversion, HEK293 T-Rex cells); format: cell-based; conditions: for SI (1B1:19A1): ratio of IC50 CYP19A1 to CYP1B1, for complexes 4–6 IC50 (light); for % Enzyme Activity: CYP19A1, dark
T2 sequence (P11511 1-503): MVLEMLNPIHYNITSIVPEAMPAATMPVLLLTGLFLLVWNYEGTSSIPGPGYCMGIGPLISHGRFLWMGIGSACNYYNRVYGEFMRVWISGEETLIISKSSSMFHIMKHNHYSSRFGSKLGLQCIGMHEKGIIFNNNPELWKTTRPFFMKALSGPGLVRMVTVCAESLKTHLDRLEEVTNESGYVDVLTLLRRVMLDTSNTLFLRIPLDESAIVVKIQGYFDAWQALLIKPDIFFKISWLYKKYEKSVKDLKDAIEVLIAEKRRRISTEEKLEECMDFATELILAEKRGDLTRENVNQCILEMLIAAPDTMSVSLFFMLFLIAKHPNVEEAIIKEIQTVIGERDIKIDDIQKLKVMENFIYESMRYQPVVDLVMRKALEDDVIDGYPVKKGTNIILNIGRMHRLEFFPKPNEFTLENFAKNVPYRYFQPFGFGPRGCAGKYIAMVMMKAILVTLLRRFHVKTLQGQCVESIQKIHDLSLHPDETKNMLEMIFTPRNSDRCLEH
Method: Thus, the activity against CYP19A1 was evaluated using a recently developed in-cell fluorometric assay.
REE or DBF was added as described above.

[3] = target: T3, CYP1A1 (Homo sapiens, UniProt P04798); assay: In cell activity assay for CYP1A1 (7-ethoxyresorufin conversion, HEK293 T-Rex cells); conditions: for % Enzyme Activity: CYP1A1, dark; for SI (1B1:1A1): ratio of IC50 CYP1A1 to CYP1B1, for complexes 4–6 the IC50 (light) values were used; for pIC50: REE
T3 sequence (P04798 1-512): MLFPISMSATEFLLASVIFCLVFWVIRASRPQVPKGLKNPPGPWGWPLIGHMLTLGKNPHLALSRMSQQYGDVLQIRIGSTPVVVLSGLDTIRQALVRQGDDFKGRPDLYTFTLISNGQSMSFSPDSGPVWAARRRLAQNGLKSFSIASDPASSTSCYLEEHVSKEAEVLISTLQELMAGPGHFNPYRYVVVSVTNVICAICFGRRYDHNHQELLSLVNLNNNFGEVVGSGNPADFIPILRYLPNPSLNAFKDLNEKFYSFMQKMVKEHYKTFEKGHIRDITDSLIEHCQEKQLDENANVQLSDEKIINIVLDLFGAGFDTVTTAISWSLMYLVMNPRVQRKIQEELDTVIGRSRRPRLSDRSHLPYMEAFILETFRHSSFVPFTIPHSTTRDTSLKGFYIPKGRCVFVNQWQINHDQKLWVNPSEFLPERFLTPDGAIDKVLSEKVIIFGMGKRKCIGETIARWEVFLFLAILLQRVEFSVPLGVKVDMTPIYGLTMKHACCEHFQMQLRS
Excerpt: A stable HEK cell line was created with CYP1B1 expression under the control of tetracycline to facilitate regulated and titratable expression (see the Methods section for more details). A cell line was also created for CYP1A1 as a counter screen to evaluate selectivity. […] The fluorogenic substrate, 7-ethoxyresorufin (REE), is a validated substrate for both CYPs and was used in both assays. Cytochrome P450 oxidoreductase (POR) is the required reductase partner for CYPs, and was also overexpressed in these systems to improve catalytic efficiency and the resulting signal for the assay.
Both the CYP and POR expression was under the control of the TetO2 inducible CMV promoter[26].
Cell lines were generated in the HEK293 T-Rex cell line. Following transfection, cells were selected with 500 μg/mL Zeocin, and 7.5 μg/mL Blasticidin to create a stable pool. Inducible expression of CYP and POR was confirmed by immunoblot. […] The lines were maintained with 250 μg/mL Zeocin and 7.5 μg/mL Blasticidin to ensure continued selective pressure.
as §3
For the light-activated compounds, the experiment was modified as follows: Cells were seeded and grown overnight as described above. Media was replaced with L-15 containing 1 μg/mL tetracycline; L-15 media was used in place of opti-MEM™ to maintain CO2 outside the incubator, and to prevent cellular damage from light. Compounds were serially diluted in L-15 with 1 μg/mL tetracycline and added to the cells followed by a 1 h incubation. […] REE or DBF was added as described above.

[4] = target: T4, CYP1B1 Q332E (Homo sapiens, UniProt Q16678, Q332E); assay: In cell CYP1B1 activity assay, Q332E variant; conditions: for logSI Q332E: log of the ratio of IC50 values mutant vs WT (Fig. 3c)
T4 sequence (Q16678 1-543 Q332E): T1 sequence (Q16678 1-543 F134L) with L134F, Q332E
Excerpt: as §1, §2, §3

[5] = Dark, conversion of dibenzylfluorescein (DBF), read-out: IC50 CYP19A1 Dark
[6] = Light: 660 nm, 58.7 J/cm^2, DBF, read-out: IC50 CYP19A1 Light
[7] = at concentrations ≥10 μM (so in the source)
[8] = read-out: IC50 CYP1A1 Dark, Dark, n = 3
[9] = read-out: IC50 CYP1A1 Light, Light: 660 nm, 58.7 J/cm^2

Row | logSI F134L [1] | % Enzyme Activity ([3]; Log Conc 0.045757) | % Enzyme Activity ([3]; Log Conc 0.522879) | % Enzyme Activity ([3]; Log Conc -0.43136) | % Enzyme Activity ([3]; Log Conc -0.90849) | % Enzyme Activity ([3]; Log Conc -1.38561) | % Enzyme Activity ([3]; Log Conc -1.86273) | % Enzyme Activity ([3]; Log Conc -2.33985) | logSI Q332E [4] | Structure (SMILES) | pIC50 [2, 5] | % Enzyme Activity ([3]; Log Conc 1) | SI (1B1:1A1) [3] | pIC50 [2, 6] | SI (1B1:19A1) [2] | pIC50 [3, 8] | pIC50 [3, 9] | further results
1 | 1 | 58.9151% and 62.8214% and 61.5139% | 20.9441% and 25.477% and 27.5679% | 94.4495% and 93.088% and 89.9544% | 109.334% and 103.31% and 104.553% | 108.032% and 102.127% and 103.391% | 103.764% and 105.887% and 103.748% | 105.601% and 99.1121% and 95.2869% | 0.6 | COc1cc(/C=C/c2ccc(OC)cc2OC)cc(OC)c1 [Compound 1, reference compound] | < 4.52 | 2.088% and 2.407% and 5.1678% | – | – | – | – | – | –
2 | 0.5 | 97.5755% and 125.129% and 102.858% | 79.4229% and 93.0687% and 81.8125% | 110.341% and 133.598% and 109.681% | 118.484% and 126.806% and 121.555% | 117.981% and 113.967% and 112.29% | 107.668% and 117.038% and 124.375% | 98.3615% and 101.034% and 100.604% | 0.7 | COc1ccc(/C=C/c2ccncn2)c(OC)c1 [Compound 2] | 4.97 | 15.2494% and 25.1537% and 27.5852% | 175 | – | – | – | – | pIC50 [1]: 6.62; Ratio IC50 (mutant)/ IC50 (WT), F134L [1]: 3; pIC50 [4]: 6.40; Ratio IC50 (mutant)/ IC50 (WT), Q332E [4]: 5.3
3 | – | – | – | – | – | – | – | – | – | COc1ccc(/C=C/c2cc[n+]([Ru-4]345([n+]6ccccc6-c6cccc([n+]63)-c3cccc[n+]34)[n+]3c(cc(C(=O)[O-])c4ccccc43)-c3cc(C(=O)[O-])c4ccccc4[n+]35)cn2)c(OC)c1 [Compound 5] | 4.55 | – | 460 | 4.95 | 660 | 4.39 | 5.11 | impact on CYP19A1 [2, 7]: no impact; impact on CYP1A1 [3, 7]: no impact
4 | – | – | – | – | – | – | – | – | – | COc1ccc(/C=C/c2cc[n+]([Ru-4]345([n+]6ccccc6-c6cccc([n+]63)-c3cccc[n+]34)[n+]3c(cc(C(=O)[O-])c4ccccc43)-c3cc(C(=O)[O-])c4ccccc4[n+]35)cc2)c(OC)c1 [Compound 6] | < 4.52 | 101.782% and 110.804% | >100,000 | 4.72 | 62,800 | < 4.52 | < 4.52 | % Enzyme Activity ([2]; Log Conc 0.045757): 105.406% and 101.538% and 104.022%; % Enzyme Activity ([2]; Log Conc 0.522879): 104.302% and 98.6869% and 100.038%; % Enzyme Activity ([2]; Log Conc 1): 98.3957% and 97.4287% and 99.555%; % Enzyme Activity ([2]; Log Conc 1.47712): 84.792% and 87.3743% and 76.9903%; % Enzyme Activity ([2]; Log Conc -0.43136): 108.571% and 102.071% and 105.115%; % Enzyme Activity ([2]; Log Conc -0.90849): 106.835% and 107.302% and 104.318%; % Enzyme Activity ([2]; Log Conc -1.38561): 104.082% and 105.269% and 104.335%; % Enzyme Activity ([2]; Log Conc -1.86273): 107.692% and 92.0059% and 100.302%; % Enzyme Activity ([3]; Log Conc 0.39794): 91.0522% and 92.8898%; % Enzyme Activity ([3]; Log Conc -0.20412): 95.4892% and 97.456%; % Enzyme Activity ([3]; Log Conc -0.80618): 104.418% and 113.985%; % Enzyme Activity ([3]; Log Conc -1.40824): 109.608% and 108.283%; % Enzyme Activity ([3]; Log Conc -2.0103): 108.509% and 109.086%; % Enzyme Activity ([3]; Log Conc -2.61236): 100.346% and 103.098%; % Enzyme Activity ([3]; Log Conc -3.21442): 102.096% and 97.9039%

Row | Structure (SMILES) | logSI F134L [1] | % Enzyme Activity ([3]; Log Conc 0.045757) | % Enzyme Activity ([3]; Log Conc 0.522879) | % Enzyme Activity ([3]; Log Conc -0.43136) | % Enzyme Activity ([3]; Log Conc -0.90849) | % Enzyme Activity ([3]; Log Conc -1.38561) | % Enzyme Activity ([3]; Log Conc -1.86273) | % Enzyme Activity ([3]; Log Conc -2.33985) | logSI Q332E [4] | pIC50 [2, 5] | % Enzyme Activity ([3]; Log Conc 1) | SI (1B1:1A1) [3] | pIC50 [2, 6] | SI (1B1:19A1) [2] | pIC50 [3, 8] | pIC50 [3, 9] | further results
5 | COc1ccc(C=Cc2ccncc2)c(OC)c1 [Compound 3] | 1.7 | 84.2841% and 102.432% and 105% | 59.4676% and 67.9492% and 76.5686% | 103.457% and 112.898% and 125.706% | 103.209% and 120.806% and 117.825% | 95.9953% and 108.125% and 129.481% | 106.428% and 95.389% and 98.1832% | – | 2.2 | 4.84 | 14.8056% and 20.3883% and 24.2847% | – | – | – | – | – | % Enzyme Activity ([3]; Log Conc 1.47712): 0.5263% and 0.2508% and 0.3665%

— article PMC9233675, “Ru(II) photocages enable precise control over enzyme activity with red light” (Nature Communications, 2022)
